# Experimental data published in patent US20130217702A1 (Richter Gedeon Nyrt., priority 2010, published 2013).
# Where two headings read alike, the source gives them in different places.
# Legend:
# [1] = biological target: T1, recombinant human B1 receptors (Homo sapiens, UniProt P46663); assay: Functional assay: antagonist potency by cytosolic calcium measurement (plate reader fluorimeter) in CHO-B1 cells, agonist LysDABK; type: cell-based
# T1 construct: host or cells: CHO (CHO-B1)
# T1 sequence (P46663 1-353): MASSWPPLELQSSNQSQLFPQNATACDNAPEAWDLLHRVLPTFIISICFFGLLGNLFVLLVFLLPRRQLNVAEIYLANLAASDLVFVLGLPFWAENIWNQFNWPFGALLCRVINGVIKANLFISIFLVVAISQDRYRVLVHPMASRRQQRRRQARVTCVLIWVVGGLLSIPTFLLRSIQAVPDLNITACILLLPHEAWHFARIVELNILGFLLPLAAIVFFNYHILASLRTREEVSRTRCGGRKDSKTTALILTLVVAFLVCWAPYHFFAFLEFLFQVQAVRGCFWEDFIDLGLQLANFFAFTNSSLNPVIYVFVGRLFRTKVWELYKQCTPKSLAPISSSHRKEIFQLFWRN
# Procedure, shortened: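 IC50 is the concentration giving half-maximal inhibition of the LysDABK (EC80) calcium response, fitted from at least three experiments. CHO cells stably expressing human B1 were dye-loaded, exposed to compound for 20-25 min, then read by fluo-4 fluorescence (ΔF/F) at 37 °C.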
# [2] = biological target: T2, human recombinant bradykinin B1 receptor (Homo sapiens, UniProt P46663); assay: Human recombinant bradykinin B1 receptor competitive radioligand binding
# T2 construct: host or cells: CHO cells, clone hB1-A5
# T2 sequence (P46663 1-353): T1 sequence (P46663 1-353)
# Procedure, shortened: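 Competition radioligand binding on CHO-expressed hB1 membranes, using [3,4-prolyl-3,4-^3H(N)]-[Des-Arg^10] Kallidin as tracer, 15 min at 25° C. Excess Lys-des-Arg^9-Bradykinin (10 μM) set nonspecific binding. Sigmoidal fits of at least seven concentrations gave IC50, converted to Ki via Cheng-Prusoff; KD from Scatchard.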
# [3] = CHO-B1 cells, inhibition of LysDABK (EC80)-evoked [Ca2+]i elevation, read-out: B1 func.
# [4] = hB1 expressed in CHO cells, [3H]-[Des-Arg10] Kallidin radioligand, read-out: B1 binding
SMILES,"IC50 [1, 3]","Ki [2, 4]","IC50 ([1]; reference compounds, functional test, measured by the applicant, read-out: IC50)","Ki ([2]; reference compounds, binding test, measured by the applicant, read-out: Ki)"
"Cc1nc(-c2c(Cl)c3ccccc3n2-c2ccc(CNC(=O)C3(NC(=O)CCC(C)C)CC3)cc2)no1 [Example 140, 1-(4-Methyl-pentanoylamino)-cyclopropanecarboxylic acid 4-[3-chloro-2-(5-methyl-[1,2,4]oxadiazol-3-yl)-indol-1-yl]-benzylamide]",< 20 nM,< 20 nM,–,–
"Cc1noc(-c2c(Cl)c3ccccc3n2-c2ccc(CNC(=O)C3(NC(=O)c4ccnc(F)c4)CC3)cc2)n1 [Example 113, N-(1-{4-[3-Chloro-2-(3-methyl-[1,2,4]oxadiazol-5-yl)-indol-1-yl]-benzylcarbamoyl}-cyclopropyl)-2-fluoro-isonicotinamide]",< 20 nM,< 20 nM,–,–
"Cc1ccc(C(=O)NC2(C(=O)NCc3ccc(-n4c(-c5noc(C)n5)c(Cl)c5ccccc54)cc3)CC2)c(Cl)n1 [Example 156, 2-Chloro-N-(1-{4-[3-chloro-2-(5-methyl-[1,2,4]oxadiazol-3-yl)-indol-1-yl]-benzylcarbamoyl}-cyclopropyl)-6-methyl-nicotinamide]",< 20 nM,< 20 nM,–,–
"COc1cc(C(=O)NC2(C(=O)NCc3ccc(-n4c(-c5noc(C)n5)c(Cl)c5cc(Cl)ccc54)cc3)CC2)on1 [Example 66, 3-Methoxy-isoxazole-5-carboxylic acid (1-{4-[3,5-dichloro-2-(5-methyl-[1,2,4]oxadiazol-3-yl)-indol-1-yl]-benzylcarbamoyl}-cyclopropyl)-amide]",< 20 nM,< 20 nM,–,–
"Cc1nc(-c2c(Cl)c3cc(Cl)ccc3n2-c2ccc(CNC(=O)C3(NC(=O)c4cccc(F)c4)CC3)cc2)no1 [Example 71, N-(1-{4-[3,5-Dichloro-2-(5-methyl-[1,2,4]oxadiazol-3-yl)-indol-1-yl]-benzylcarbamoyl}-cyclopropyl)-3-fluoro-benzamide]",< 20 nM,< 20 nM,–,–
"Cc1nc(-c2c(Cl)c3ccccc3n2-c2ccc(CNC(=O)C3(NC(=O)c4ccncc4F)CC3)cc2)no1 [Example 97, N-(1-{4-[3-Chloro-2-(5-methyl-[1,2,4]oxadiazol-3-yl)-indol-1-yl]-benzylcarbamoyl}-cyclopropyl)-3-fluoro-isonicotinamide]",20 to 100 nM,< 20 nM,–,–
"COc1cc(C(=O)NC2(C(=O)N[C@H](C)c3ccc(-n4c(-c5noc(C)n5)c(Cl)c5ccccc54)cc3F)CC2)on1 [Example 191, 3-Methoxy-isoxazole-5-carboxylic acid [1-((R)-1-{4-[3-chloro-2-(5-methyl-[1,2,4]oxadiazol-3-yl)-indol-1-yl]-2-fluoro-phenyl}-ethylcarbamoyl)-cyclopropyl]amide]",< 20 nM,< 20 nM,–,–
"Cc1noc(-c2cc3cc(F)ccc3n2-c2ccc(CNC(=O)C3(NC(=O)c4cncc(C(F)(F)F)c4)CC3)cc2)n1 [Example 102, N-(1-{4-[5-Fluoro-2-(3-methyl-[1,2,4]oxadiazol-5-yl)-indol-1-yl]-benzylcarbamoyl}-cyclopropyl)-5-trifluoromethyl-nicotinamide]",< 20 nM,< 20 nM,–,–
"COc1ccc2c(c1)cc(-c1nnc(C)o1)n2-c1ccc(CNC(=O)C2(NC(=O)c3cncc(C(F)(F)F)c3)CC2)cc1 [Example 125, N-(1-{4-[5-Methoxy-2-(5-methyl-[1,3,4]oxadiazol-2-yl)-indol-1-yl]-benzylcarbamoyl}-cyclopropyl)-5-trifluoromethyl-nicotinamide]",< 20 nM,< 20 nM,–,–
"COc1cc(C(=O)NC2(C(=O)NCc3ccc(-n4c(-c5noc(C)n5)cc5cc(F)ccc54)cc3)CC2)on1 [Example 47, 3-Methoxy-isoxazole-5-carboxylic acid (1-{4-[5-fluoro-2-(5-methyl-[1,2,4]oxadiazol-3-yl)-indol-1-yl]-benzylcarbamoyl}-cyclopropyl)-amide]",< 20 nM,< 20 nM,–,–
"Cc1cnc(C(=O)NC2(C(=O)NCc3ccc(-n4c(-c5noc(C)n5)c(Cl)c5ccccc54)cc3F)CC2)cn1 [Example 106, 5-Methyl-pyrazine-2-carboxylic acid (1-{4-[3-chloro-2-(5-methyl-[1,2,4]oxadiazol-3-yl)-indol-1-yl]-2-fluoro-benzylcarbamoyl}-cyclopropyl)-amide]",< 20 nM,< 20 nM,–,–
"Cc1nc(-c2c(Cl)c3ccccc3n2-c2ccc(CNC(=O)C3(NC(=O)c4conc4C)CC3)cc2)no1 [Example 181, 3-Methyl-isoxazole-4-carboxylic acid (1-{4-[3-chloro-2-(5-methyl-[1,2,4]oxadiazol-3-yl)-indol-1-yl]-benzylcarbamoyl}-cyclopropyl)-amide]",< 20 nM,< 20 nM,–,–
"COc1cc(C(=O)NC2(C(=O)N[C@H](C)c3ccc(-n4c(-c5noc(C)n5)c(Cl)c5ccccc54)cc3)CC2)on1 [Example 41, (R)-3-Methoxy-isoxazole-5-carboxylic acid [1-(1-{4-[3-chloro-2-(5-methyl-[1,2,4]oxadiazol-3-yl)-indol-1-yl]-phenyl}-ethylcarbamoyl)-cyclopropyl]-amide]",< 20 nM,< 20 nM,–,–
"COc1ccc2c(c1)cc(-c1nc(C)no1)n2-c1ccc(CNC(=O)C2(NC(=O)c3cncc(C(F)(F)F)c3)CC2)cc1 [Example 79, N-(1-{4-[5-Methoxy-2-(3-methyl-[1,2,4]oxadiazol-5-yl)-indol-1-yl]-benzylcarbamoyl}-cyclopropyl)-5-trifluoromethyl-nicotinamide]",< 20 nM,< 20 nM,–,–
"CCCN1C(=O)[C@H](NC(=O)Nc2ccc(N3CCC(N4CCCCC4)CC3)cc2)N=C(c2ccc(C)cc2)c2ccccc21 [N-[4-(,4′-bipiperidin)-1′-ylphenyl]-N′-[(3R)-2,3-dihydro-5-(4-methyl-phenyl)-2-oxo-1-propyl-1H-1,4-benzodiazepin-3-yl]-urea, reference compound]",–,–,64.5 nM,13.4 nM
"Cc1noc(-c2cc3ccccc3n2-c2ccc(CNC(=O)C3(NC(=O)c4cncc(C(F)(F)F)c4)CC3)cc2)n1 [Example 83, N-(1-{4-[2-(3-Methyl-[1,2,4]oxadiazol-5-yl)-indol-1-yl]-benzylcarbamoyl}-cyclopropyl)-5-trifluoromethyl-nicotinamide]",< 20 nM,< 20 nM,–,–
"Cc1cnc(C(=O)NC2(C(=O)NCc3ccc(-n4c(-c5noc(C)n5)c(Cl)c5cc(F)ccc54)cc3)CC2)cn1 [Example 87, 5-Methyl-pyrazine-2-carboxylic acid (1-{4-[3-chloro-5-fluoro-2-(5-methyl-[1,2,4]oxadiazol-3-yl)-indol-1-yl]-benzylcarbamoyl}-cyclopropyl)-amide]",< 20 nM,< 20 nM,–,–
"Cc1cnc(C(=O)NC2(C(=O)NCc3ccc(-n4c(-c5noc(C)n5)cc5cc(F)ccc54)cc3F)CC2)cn1 [Example 131, 5-Methyl-pyrazine-2-carboxylic acid (1-{2-fluoro-4-[5-fluoro-2-(5-methyl-[1,2,4]oxadiazol-3-yl)-indol-1-yl]-benzylcarbamoyl}-cyclopropyl)-amide]",20 to 100 nM,< 20 nM,–,–
"Cc1nc(-c2c(Cl)c3ccccc3n2-c2ccc(CNC(=O)C3(NC(=O)c4sc(C)nc4C)CC3)cc2)no1 [Example 150, 2,4-Dimethyl-thiazole-5-carboxylic acid (1-{4-[3-chloro-2-(5-methyl-[1,2,4]oxadiazol-3-yl)-indol-1-yl]-benzylcarbamoyl}-cyclopropyl)-amide]",20 to 100 nM,< 20 nM,–,–
"COc1cc(C(=O)NC2(C(=O)NCc3ccc(-n4c(-c5noc(C)n5)cc5cc(F)ccc54)cc3F)CC2)on1 [Example 133, 3-Methoxy-isoxazole-5-carboxylic acid (1-{2-fluoro-4-[5-fluoro-2-(5-methyl-[1,2,4]oxadiazol-3-yl)-indol-1-yl]-benzylcarbamoyl}-cyclopropyl)-amide]",< 20 nM,< 20 nM,–,–
"COc1ccc2c(c1)cc(-c1nnc(C)o1)n2-c1ccc(CNC(=O)C2(NC(=O)c3cc(OC)no3)CC2)cc1 [Example 126, 3-Methoxy-isoxazole-5-carboxylic acid (1-{4-[5-methoxy-2-(5-methyl-[1,3,4]oxadiazol-2-yl)-indol-1-yl]-benzylcarbamoyl}-cyclopropyl)-amide]",20 to 100 nM,< 20 nM,–,–
"COc1cc(C(=O)NC2(C(=O)NCc3ccc(-n4c(-c5noc(C)n5)c(C#N)c5ccccc54)cc3)CC2)on1 [Example 21, 3-Methoxy-isoxazole-5-carboxylic acid (1-{4-[3-cyano-2-(5-methyl-[1,2,4]oxadiazol-3-yl)-indol-1-yl]-benzylcarbamoyl}-cyclopropyl)-amide]",< 20 nM,< 20 nM,–,–
"COc1ccc2c(c1)cc(-c1nc(C)no1)n2-c1ccc(CNC(=O)C2(NC(=O)c3cc(OC)no3)CC2)cc1 [Example 80, 3-Methoxy-isoxazole-5-carboxylic acid (1-{4-[5-methoxy-2-(3-methyl-[1,2,4]oxadiazol-5-yl)-indol-1-yl]-benzylcarbamoyl}-cyclopropyl)-amide]",< 20 nM,< 20 nM,–,–
